These results are taken from patent US20260183274A1, “PDK1 REGULATORY COMPOUND AND COMPOSITION CONTAINING THE SAME” (PROVIBIO CO., LTD., priority 2024, published 2026).

The test system of data set [1] is Human multiple myeloma, KMS34. Description: Relative cell viability, KMS34. Format: cell-based. To be noted: KMS34 cells, 1 μM, relative to untreated cells. As for the experimental part: (§1) After that, 10 μL of CCK-8 was added to each well, and the plate was incubated again at 37° C. in a 5% CO2 incubator for 2 hours.
(§2) In other words, when the survival rate of untreated cells (DMSO) is set at 100%, the relative cell survival rate in each group treated with the drug at different concentrations is indicated.

Data set [2] concerns C57BL/6 mice with skin grafts. Description: Skin graft animal model (BALB/c donor, C57BL/6 recipient). Format: in vivo, mouse. To be noted: 0.15 mg/kg twice daily. On the procedure: To evaluate the immune-suppressive effects of the compounds according to the present invention, a skin graft animal model was established, and the efficacy of the compounds was analyzed in the model.
First, female BALB/c mice aged 7 weeks and weighing approximately 20 g were used as donor animals, and female C57BL/6 mice of the same age and weight were used as recipient animals. All experimental animals were supplied by HanabioTech Co., Ltd.
Prior to the experiment, the animals were acclimatized in SPF-certified facilities for one week and then used in the experiment. The housing conditions were maintained at a temperature of 22±2° C., relative humidity of 55+10%, and a 12-hour light-dark cycle.
To establish the skin graft model, a anesthetic solution consisting of ketamine, […], and PBS in a volume ratio of 1:1:3 was administered intraperitoneally to C57BL/6 mice to induce anesthesia.
The hair on the dorsal side of the anesthetized mice was removed and disinfected, followed by excision of the full-thickness skin using an 8 mm punch. Subsequently, skin of the same size was harvested from donor mice (BALB/c) and transplanted. […]
Subsequently, the proportions of CD3- and B220-positive cells were analyzed using a flow cytometer.

Data set [3] concerns the target T1, full-length PDK1 (PDK1-FL) (Homo sapiens, UniProt O15530).
T1 construct: the full-length (PDK1-FL) protein of human-derived PDK1; inferred from Ni-NTA purification; made in house; host or cells: Sf9 insect cells, baculovirus expression system
Description: Microscale Thermophoresis (MST) binding affinity, full-length PDK1. On the procedure:
(§3) Microscale Thermophoresis (MST) analysis was performed to quantitatively measure the binding affinity between PDK1 protein and substrate peptides (PDKTide) or the company-developed low-molecular-weight compound (GO88).
(§4) The target proteins were the full-length (PDK1-FL) protein of human-derived PDK1 and the Protein Kinase Domain (PKD) fragment, which were expressed using a baculovirus expression system in insect cell lines (Sf9).
(§5) The purity of the purified proteins was confirmed by SDS-PAGE and Coomassie Brilliant Blue staining.
(§6) The purified protein was labeled with a fluorescent label using the Monolith NT™ RED-NHS Protein Fluorescent Labeling Kit (NanoTemper).
(§7) Specifically, 20 μM of the protein was dissolved in PBS (pH 7.4) buffer, mixed with the fluorescent reagent, and reacted at room temperature under dark conditions for 30 minutes. The mixture was then buffered with MST analysis buffer (50 mM HEPES, 150 mM NaCl, 1 mM DTT, 0.05% Tween-20, pH 7.5). […]
(§8) The reaction samples were injected into an MST-specific capillary (NanoTemper) and analyzed using a Monolith NT.115 device (NanoTemper) under laser intensity conditions. […]
(§9) The measured data were analyzed using MO.Affinity Analysis software (NanoTemper), and the dissociation constant (Kd) was calculated from the binding curve.
Background: In MST a laser heats a spot of the sample, and binding alters the fluorescence response.

Data set [4] addresses T2, PDK1-PKD protein (Protein Kinase Domain fragment) (Homo sapiens, UniProt O15530).
T2 construct: the Protein Kinase Domain (PKD) fragment; inferred from Ni-NTA purification; made in house; host or cells: Sf9 insect cells, baculovirus expression system
Kind of data set: Microscale Thermophoresis (MST) binding affinity, PDK1-PKD. To be noted: in the presence of ATP; FIG. 48; read-out: Dissociation constant (Kd), PDK1-PKD. On the procedure:
as §3, §4, §5, §6, §7, §8, §9

The test system of data set [5] is Human Gastric cancer cell, SNU-719. Description: Relative cell viability CCK-8, SNU-719. Type of data set: cell-based. To be noted: 48 hours. As for the experimental part: Human-derived breast cancer cell line MCF-7, human-derived lung cancer cell line A549, human-derived colorectal cancer cell line HCT-116, human pancreatic cancer cell line AsPC-1, glioblastoma cell line A172, and melanoma cell line Malme-3M were obtained from the Korean Cell Bank. gastric cancer cell line SNU-719, and bladder cancer cell line T24 were cultured in RPMI-1640 medium containing 10% FBS.
Following stabilization, the cells were harvested using Trypsin-EDTA treatment, centrifuged at 1,200 rpm for 3 minutes, the supernatant was removed, and the cells were resuspended in the same medium. They were then seeded into a 96-well plate (Costar 96-well cell culture plate, Corning) at 100 μL per well, and the conditions were adjusted as indicated in Table 5.
The cells were cultured in a 5% CO2 incubator at 37° C. for 24 hours, and after stabilization of the cells, each plate was washed with 200 μL of PBS per well and treated with 50 μL of culture medium per well.
as §1, §2

Usually Kd stands for a measure of binding affinity in units of concentration. One may read the viability as the share of living cells, or the viability signal relative to a control. A higher viability goes with less harm to the cells.

T1 sequence (O15530 whole entry): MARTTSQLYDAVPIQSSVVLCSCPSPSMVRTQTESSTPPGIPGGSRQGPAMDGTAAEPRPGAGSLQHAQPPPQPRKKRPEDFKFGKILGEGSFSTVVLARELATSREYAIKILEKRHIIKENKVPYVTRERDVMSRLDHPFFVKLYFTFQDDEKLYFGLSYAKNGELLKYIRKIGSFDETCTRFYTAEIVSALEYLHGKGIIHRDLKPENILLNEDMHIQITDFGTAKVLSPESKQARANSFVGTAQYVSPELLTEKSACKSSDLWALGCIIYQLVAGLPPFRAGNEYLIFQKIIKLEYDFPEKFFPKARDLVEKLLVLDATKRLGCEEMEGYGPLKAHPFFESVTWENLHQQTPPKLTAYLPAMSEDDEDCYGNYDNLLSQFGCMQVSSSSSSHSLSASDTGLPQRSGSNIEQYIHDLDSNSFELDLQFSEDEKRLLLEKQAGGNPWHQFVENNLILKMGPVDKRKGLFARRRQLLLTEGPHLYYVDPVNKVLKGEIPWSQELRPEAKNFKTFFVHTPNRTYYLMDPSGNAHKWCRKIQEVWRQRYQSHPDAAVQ
T2 sequence (O15530 82-342 limits assumed): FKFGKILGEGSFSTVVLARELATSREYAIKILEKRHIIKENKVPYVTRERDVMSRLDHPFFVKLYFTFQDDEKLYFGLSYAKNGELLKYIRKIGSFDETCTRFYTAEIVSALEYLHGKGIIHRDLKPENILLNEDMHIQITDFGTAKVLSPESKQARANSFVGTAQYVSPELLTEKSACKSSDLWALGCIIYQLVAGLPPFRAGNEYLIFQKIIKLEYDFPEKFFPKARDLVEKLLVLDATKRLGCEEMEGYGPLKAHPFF

Regarding `CC1(C)CN(CCCCCCCCCCCCC(=O)Nc2nc(N)c3[nH]cnc3n2)CCO1` [Compound 11, 12-[4-(2,2-dimethylmorpholin-4-yl)]dodecyl-N-(6-aminopurine-2-yl) carboxamide], in data set [1], the “Relative cell viability (%)” value stood at 26.19%.
On to `Nc1ncccc1C(=O)NCCCCCCCCCCCCN1CCNCC1` [Compound 14, 2-Amino-N-(12-(piperazin-1-yl)dodecyl)nicotinamide], for which the “Animals with graft pinkening and good blood flow” value is given as “three out of five” in data set [2] (day 10 post-transplantation) and “one out of five” in data set [2] (day 15 post-transplantation). For the same molecule, the Kd is ~58.4 nM in data set [3] (FIG. 48, read-out: Dissociation constant (Kd), full-length PDK1) and ~371 nM in data set [4]. In addition, the “Binding affinity of full-length PDK1 compared to the PKD fragment” value in data set [3] (ratio of Kd values) is reported as “approximately six times stronger binding affinity”. In data set [5] (1 μM), this molecule came in with a viability at 1 µM of 49.9%. In data set [5] (10 μM), this molecule gave a viability at 10 µM of 47.8%. The viability at 30 µM in data set [5] (30 μM) came to 44.4%. Also, the viability at 50 µM in data set [5] (50 μM) stood at 45.5%.
